These compounds were tested against S. aureus GyrB ATPase (Staphylococcus aureus, UniProt P0A0K8) (assay: S. aureus GyrB ATPase inhibition (ammonium molybdate/malachite green phosphate detection)). Details: 1 μM compound; S. aureus GyrB ATPase; read-out: Percent Inhibition (1 μM).
Sequence of S. aureus GyrB ATPase (P0AES4 whole entry): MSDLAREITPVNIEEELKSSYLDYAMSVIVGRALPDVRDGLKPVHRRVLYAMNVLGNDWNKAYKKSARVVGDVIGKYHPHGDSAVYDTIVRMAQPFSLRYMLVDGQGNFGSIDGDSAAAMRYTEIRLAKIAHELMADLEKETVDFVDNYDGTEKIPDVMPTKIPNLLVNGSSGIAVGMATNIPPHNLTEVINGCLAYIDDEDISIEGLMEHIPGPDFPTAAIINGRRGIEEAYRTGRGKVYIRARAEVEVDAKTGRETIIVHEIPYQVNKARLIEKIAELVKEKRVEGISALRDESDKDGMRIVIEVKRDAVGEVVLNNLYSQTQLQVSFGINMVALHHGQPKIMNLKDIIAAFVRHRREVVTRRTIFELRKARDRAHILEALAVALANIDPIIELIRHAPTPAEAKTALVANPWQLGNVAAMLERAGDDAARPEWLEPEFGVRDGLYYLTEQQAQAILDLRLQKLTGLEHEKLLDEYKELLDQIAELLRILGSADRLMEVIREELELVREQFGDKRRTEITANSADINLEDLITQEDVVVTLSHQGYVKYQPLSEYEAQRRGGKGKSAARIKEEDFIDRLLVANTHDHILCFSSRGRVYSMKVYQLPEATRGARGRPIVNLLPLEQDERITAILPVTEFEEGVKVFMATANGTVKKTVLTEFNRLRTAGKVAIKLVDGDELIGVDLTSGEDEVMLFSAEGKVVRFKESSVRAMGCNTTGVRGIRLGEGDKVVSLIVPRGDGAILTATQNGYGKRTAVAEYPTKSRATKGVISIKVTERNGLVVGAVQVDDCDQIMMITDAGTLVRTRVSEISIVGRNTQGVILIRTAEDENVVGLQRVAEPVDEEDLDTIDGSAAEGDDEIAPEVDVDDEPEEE
Sequence of S. aureus GyrB ATPase (P0A0K8 whole entry): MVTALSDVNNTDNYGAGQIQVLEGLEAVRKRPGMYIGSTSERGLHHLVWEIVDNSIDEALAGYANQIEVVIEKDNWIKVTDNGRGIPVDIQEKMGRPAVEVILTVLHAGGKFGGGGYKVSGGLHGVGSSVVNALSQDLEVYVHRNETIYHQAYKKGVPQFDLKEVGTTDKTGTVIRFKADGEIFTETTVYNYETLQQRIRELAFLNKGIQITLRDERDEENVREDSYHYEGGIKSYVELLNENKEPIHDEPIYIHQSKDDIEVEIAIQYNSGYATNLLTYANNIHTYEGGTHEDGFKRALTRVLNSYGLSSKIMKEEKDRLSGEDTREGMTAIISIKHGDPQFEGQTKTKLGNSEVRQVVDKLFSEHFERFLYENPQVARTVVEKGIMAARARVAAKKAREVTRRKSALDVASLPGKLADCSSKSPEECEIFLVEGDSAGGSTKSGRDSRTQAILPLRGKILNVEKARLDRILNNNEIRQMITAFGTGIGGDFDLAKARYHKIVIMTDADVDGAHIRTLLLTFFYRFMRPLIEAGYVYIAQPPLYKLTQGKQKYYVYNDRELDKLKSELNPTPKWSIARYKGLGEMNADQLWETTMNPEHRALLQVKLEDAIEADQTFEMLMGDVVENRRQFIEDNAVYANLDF
Format: biochemical
Experimental: S. aureus GyrB ATPase Inhibition Activity: Compounds may be tested for inhibition of S. aureus GyrB ATPase activity using an ammonium molybdate/malachite green-based phosphate detection assay (Lanzetta, P. A., L. J. Alvarez, P. S. Reinach, and O. A. Candia, 1979, 100: 95-97). Assays can be performed in multiwell plates in 30 μl reactions containing: 50 mM Hepes buffer pH 7.5, 75 mM ammonium acetate, 8.0 mM magnesium chloride, 0.5 mM ethylenediaminetetraacetic acid, 5% glycerol, 1.0 mM 1,4-Dithio-DL-threitol, 200 nM bovine serum albumin, 1.0 μg/ml sheared salmon sperm DNA, 250 pM E. coli GyrA, 250 pM S. aureus GyrB, 250 μM ATP, and compound in dimethylsulfoxide. Reactions can be quenched with 30 μl of ammonium molybdate/malachite green detection reagent containing 1.2 mM malachite green hydrochloride, 8.5 mM ammonium molybdate tetrahydrate, and 1 M hydrochloric acid. Plates can be read in an absorbance plate reader at 650 nm and percent inhibition values can be calculated using dimethylsulfoxide (2%)-containing reactions as 0% inhibition and EDTA-containing ([…]) reactions as 100% inhibition controls. An IC50 measurement of compound potency for each compound can be determined from reactions performed in the presence of 10 different compound concentrations.
`CCNC(=O)Nc1cc(-c2nc(C(F)(F)F)cs2)c(-c2cnc3c(c2)c(=O)c(C(=O)O)cn3CC2CCN(C)CC2)cn1` [Example 1, 6-(6-(3-Ethylureido)-4-(4-(trifluoromethyl)thiazol-2-yl)pyridin-3-yl)-1-((1-methylpiperidin-4-yl)methyl)-4-oxo-1,4-dihydro-1,8-naphthyridine-3-carboxylic acid] gave an inhibition at 1 µM of 107%.
`CCNC(=O)Nc1cc(-c2nc(C(F)(F)F)cs2)c(-c2cnc3c(c2)c(=O)c(C(=O)O)cn3CCC2CCN(C)CC2)cn1` [Example 2, 6-(6-(3-ethylureido)-4-(4-(trifluoromethyl)thiazol-2-yl)pyridin-3-yl)-1-(2-(1-methylpiperidin-4-yl)ethyl)-4-oxo-1,4-dihydro-1,8-naphthyridine-3-carboxylic acid] showed an inhibition at 1 µM of 123%.
`CCNC(=O)Nc1cc(-c2nc(C(F)(F)F)cs2)c(-c2cnc3c(c2)c(=O)c(C(=O)O)cn3CC)cn1` [Example 8, 1-Ethyl-6-{6-[(ethylcarbamoyl)amino]-4-[4-(trifluoromethyl)-1,3-thiazol-2-yl]pyridin-3-yl}-4-oxo-1,4-dihydro-1,8-naphthyridine-3-carboxylic acid] showed an inhibition at 1 µM of 98%.
For `CCNC(=O)Nc1cc(-c2nc(C(F)(F)F)cs2)c(-c2cnc3c(c2)c(=O)c(C(=O)O)cn3C2CC2)cn1` [Example 9, 1-Cyclopropyl-6-{6-[(ethylcarbamoyl)amino]-4-[4-(trifluoromethyl)-1,3-thiazol-2-yl]pyridin-3-yl}-4-oxo-1,4-dihydro-1,8-naphthyridine-3-carboxylic acid], the inhibition at 1 µM was 96%.
In the case of `CCNC(=O)Nc1cc(-c2nc(C(F)(F)F)cs2)c(-c2cnc3c(c2)c(=O)c(C(=O)O)cn3[C@H](CO)CC(C)C)cn1` [Example 11, 6-{6-[(ethylcarbamoyl)amino]-4-[4-(trifluoromethyl)-1,3-thiazol-2-yl]pyridin-3-yl}-1-[(2S)-1-hydroxy-4-methylpentan-2-yl]-4-oxo-1,4-dihydro-1,8-naphthyridine-3-carboxylic acid], the inhibition at 1 µM was 104%.
`CCNC(=O)Nc1cc(-c2nc(C(F)(F)F)cs2)c(-c2cnc3c(c2)c(=O)c(C(=O)O)cn3[C@H](CO)C(C)(C)C)cn1` [Example 12, 6-{6-[(ethylcarbamoyl)amino]-4-[4-(trifluoromethyl)-1,3-thiazol-2-yl]pyridin-3-yl}-1-[(2S)-1-hydroxy-3,3-dimethylbutan-2-yl]-4-oxo-1,4-dihydro-1,8-naphthyridine-3-carboxylic acid] was tested, and the inhibition at 1 µM was 104%.
Compound `CCNC(=O)Nc1cc(-c2nc(C(F)(F)F)cs2)c(-c2cnc3c(c2)c(=O)c(C(=O)O)cn3CCOP(=O)(O)O)cn1` [Example 14, 6-{6-[(ethylcarbamoyl)amino]-4-[4-(trifluoromethyl)-1,3-thiazol-2-yl]pyridin-3-yl}-4-oxo-1-[2-(phosphonooxy)ethyl]-1,4-dihydro-1,8-naphthyridine-3-carboxylic acid] has an inhibition at 1 µM of 103%.
`CCNC(=O)Nc1cc(-c2nc(C(F)(F)F)cs2)c(-c2cnc3c(c2)c(=O)c(C(=O)O)cn3CCN(C)C)cn1` [Example 16, 1-[2-(dimethylamino)ethyl]-6-{6-[(ethylcarbamoyl)amino]-4-[4-(trifluoromethyl)-1,3-thiazol-2-yl]pyridin-3-yl}-4-oxo-1,4-dihydro-1,8-naphthyridine-3-carboxylic acid] gave an inhibition at 1 µM of 104%.
In the case of `CCNC(=O)Nc1cc(-c2nc(C(F)(F)F)cs2)c(-c2cnc3c(c2)c(=O)c(C(=O)OCCO)cn3CC)cn1` [Example 17, 2-hydroxyethyl 1-ethyl-6-{6-[(ethylcarbamoyl)amino]-4-[4-(trifluoromethyl)-1,3-thiazol-2-yl]pyridin-3-yl}-4-oxo-1,4-dihydro-1,8-naphthyridine-3-carboxylate], the inhibition at 1 µM was 106%.
In the case of `CCNC(=O)Nc1cc(-c2nc(C(F)(F)F)cs2)c(-c2cnc3c(c2)c(=O)c(C(=O)OCCCO)cn3CC)cn1` [Example 18, 3-hydroxypropyl 1-ethyl-6-{6-[(ethylcarbamoyl)amino]-4-[4-(trifluoromethyl)-1,3-thiazol-2-yl]pyridin-3-yl}-4-oxo-1,4-dihydro-1,8-naphthyridine-3-carboxylate], the inhibition at 1 µM was 108%.
